# In publication PMC11711184, “Structural basis of THC analog activity at the Cannabinoid 1 receptor” (Nature Communications, 2025):
# Biological target: T1, CB1 (CB1-Nluc) (Homo sapiens, UniProt P21554)
# T1 construct: gene CNR1; CB1 with C-terminal NanoLuc (CB1-Nluc), stably co-expressed in HEK293-TR cells with NES-venus-mini-Gsi (Gs-based chimera with Gi1 C-terminal residues) as BRET acceptor
# Assay: NanoBRET venus-mini-Gsi recruitment
# Assay type: cell-based
# T1 sequence (P21554 whole entry): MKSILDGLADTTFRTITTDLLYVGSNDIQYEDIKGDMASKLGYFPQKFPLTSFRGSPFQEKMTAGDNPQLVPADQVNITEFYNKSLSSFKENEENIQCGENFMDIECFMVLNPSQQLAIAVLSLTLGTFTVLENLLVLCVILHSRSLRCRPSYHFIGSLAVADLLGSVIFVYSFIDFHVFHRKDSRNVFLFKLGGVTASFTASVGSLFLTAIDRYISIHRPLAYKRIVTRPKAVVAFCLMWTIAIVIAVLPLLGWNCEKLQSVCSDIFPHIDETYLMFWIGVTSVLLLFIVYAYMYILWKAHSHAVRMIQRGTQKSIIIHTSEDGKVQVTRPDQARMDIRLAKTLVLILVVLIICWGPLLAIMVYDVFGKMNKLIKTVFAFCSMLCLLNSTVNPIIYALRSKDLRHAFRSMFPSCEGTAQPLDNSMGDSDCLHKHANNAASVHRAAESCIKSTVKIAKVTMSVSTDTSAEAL
row,SMILES,EC50 [nM]
1,"CC(C)(CCCCCCN=C=S)c1cc(O)c2c(c1)OC(C)(C)[C@@H]1CC[C@@H](CO)C[C@@H]21 [AM841, (6aR,9 R,10aR)-9-(hydroxymethyl)-3-(8-isothiocyanato-2-methyloctan-2-yl)-6,6-dimethyl-6a,7,8,9,10,10a-hexahydro-6H-benzo[c]chromen-1-ol]",3.39
2,"CC1=CC[C@@H]2[C@@H](C1)c1c(O)cc(C(C)(C)CCCCCCBr)cc1OC2(C)C [AM11542, (6aR,10aR)-3-(8-bromo-2-methyloctan-2-yl)-6,6,9-trimethyl-6a,7,10,10a-tetrahydro-6H-benzo[c]chromen-1-ol]",3.39
3,"CCCCCCC(C)(C)c1cc(O)c2c(c1)OC(C)(C)[C@@H]1CC=C(CO)C[C@@H]21 [HU210, (6aR)-trans-3-(1,1-Dimethylheptyl)-6a,7,10,10a-tetrahydro-1-hydroxy-6,6-dimethyl-6H-dibenzo[b,d]pyran-9-methanol]",2.4
4,CCCCCCC(C)(C)c1cc(O)c2c(c1)OC(C)(C)[C@@H]1CC[C@@H](CO)C[C@@H]21 [HU243],2.04
5,"CCCC(C)(C)c1ccc2c(c1)OC(C)(C)[C@@H]1CC=C(C)C[C@@H]21 [JWH133, (6aR,10aR)-3-(1,1-Dimethylbutyl)-6a,7,10,10a-tetrahydro-6,6,9-trimethyl-6H-dibenzo[b,d]pyran]",1150
6,CCCCCCC(C)(C)c1cc(OC)c2c(c1)OC(C)(C)[C@@H]1CC=C(C)C[C@@H]21 [L759633],417
7,CCCCCCC(C)(C)c1cc(O)c2c(c1)OC(C)(C)C1CCC(=O)CC21 (centres unmarked) [Nabilone],13.8
8,CCCc1cc(O)c2c(c1)OC(C)(C)[C@@H]1CCC(C)=C[C@@H]21 [THCv],200
